# Patent publication US20240343658A1, “MICRONUTRIENT COMPOSITIONS AND SYSTEMS AND METHODS OF USING SAME” (Winfield Solutions, LLC, priority 2016, published 2024)
# Assay: compatibility with pesticides, modified ASTM E1518-05 (2012) tank mixture test
# Type: physicochemical
# Settings: admixture with the zinc-containing adjuvant, after 72 hours
# Experimental: The zinc-containing adjuvant compositions of the present disclosure were tested for compatibility with pesticides using a modified approach from ASTM E1518-05 (2012), Standard Practice for Evaluation of Physical Compatibility of Pesticides in Aqueous Tank Mixtures by the Dynamic Shaker Method, ASTM International, West Conshohocken, P A, 2012. The pesticides tested included: glyphosate including in its various forms including Roundup®) PowerMax®, Durango®, Cornerstone® 5 plus, Touchdown Total®, Enlist Duo™ (containing glyphosate and 2,4-D) and MON 76382; 2,4-D; Sterling® Blue; Basagran®; Enginia™.
# Materials and Methods: The apparatuses used in compatibility testing included: 1. a graduated cylinder, 120 mL; 2. transfer pipets; 3. balance, +0.01 g; 4. a sieve, U.S. standard, 50 mesh (300 μm), 3 inches in diameter; and 5. a flashlight. […] Synthetic water was made according to CIPAC handbook F section MT18.
# The final disposition of the compatibility test was on or around 100 mL, and the ratios needed to bring an application of 10 gallons per acre to 100 mL per acre were calculated. 70 percent of the water needed for the compatibility test was added to the cylinder at room temperature. The remaining components were added for the jar test according to WALES and DALES unless otherwise specified by the product label. Applications rates were used from the product label. […]
smiles,measurement,value
"O=C(O)COc1ccc(Cl)cc1Cl [2,4-D, 2,4-Dichlorophenoxyacetic acid]",compatibility observation,same results as the 24 hour testing
